How the values were obtained:
Assay in all cases: KINOMEscan competition binding
Details in all cases: compound 10.0 µM
ERBB4 (human) = ERBB4 (human) (UniProt Q15303)
PDGFRB (human) = PDGFRB (human) (UniProt P09619)
MAP3K2 (human) = MAP3K2 (human) (UniProt Q9Y2U5)
DAPK2 (human) = DAPK2 (human) (UniProt Q9UIK4)
CDK15 (human) = CDK15 (human) (UniProt Q96Q40)
IKBKE (human) = IKBKE (human) (UniProt Q14164)
SIK1 (human) = SIK1 (human) (UniProt P57059)
DYRK1A (human) = DYRK1A (human) (UniProt Q13627)
MAP3K6 (human) = MAP3K6 (human) (UniProt O95382)
KIT (human) = KIT (human) (UniProt P10721)
Chain of KIT (human) (P10721 whole entry, looked up): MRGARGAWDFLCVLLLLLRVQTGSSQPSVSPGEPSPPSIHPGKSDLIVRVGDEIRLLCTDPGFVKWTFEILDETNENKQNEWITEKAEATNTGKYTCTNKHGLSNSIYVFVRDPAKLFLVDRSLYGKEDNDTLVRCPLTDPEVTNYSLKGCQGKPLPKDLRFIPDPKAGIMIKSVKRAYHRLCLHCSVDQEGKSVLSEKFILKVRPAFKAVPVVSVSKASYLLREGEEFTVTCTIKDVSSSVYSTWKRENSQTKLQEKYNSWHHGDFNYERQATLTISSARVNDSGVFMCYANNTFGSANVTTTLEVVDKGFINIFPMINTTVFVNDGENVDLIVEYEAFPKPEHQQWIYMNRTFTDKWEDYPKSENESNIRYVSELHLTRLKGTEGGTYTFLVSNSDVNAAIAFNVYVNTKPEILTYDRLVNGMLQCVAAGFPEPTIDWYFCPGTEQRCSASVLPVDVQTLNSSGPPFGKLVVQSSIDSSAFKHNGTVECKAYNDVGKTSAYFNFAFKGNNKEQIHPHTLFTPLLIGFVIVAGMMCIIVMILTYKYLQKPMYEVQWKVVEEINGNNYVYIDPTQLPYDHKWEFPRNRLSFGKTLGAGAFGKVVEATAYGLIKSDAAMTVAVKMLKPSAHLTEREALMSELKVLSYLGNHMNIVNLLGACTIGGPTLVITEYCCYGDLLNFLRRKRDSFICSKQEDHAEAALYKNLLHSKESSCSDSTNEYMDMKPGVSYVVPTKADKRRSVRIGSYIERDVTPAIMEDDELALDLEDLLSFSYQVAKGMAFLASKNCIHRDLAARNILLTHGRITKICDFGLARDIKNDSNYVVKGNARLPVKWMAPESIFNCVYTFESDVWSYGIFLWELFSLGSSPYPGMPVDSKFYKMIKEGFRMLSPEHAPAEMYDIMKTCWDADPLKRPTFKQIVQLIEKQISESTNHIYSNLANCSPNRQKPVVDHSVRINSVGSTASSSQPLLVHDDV

IKBKB (human) = IKBKB (human) (UniProt O14920)
SRMS (human) = SRMS (human) (UniProt Q9H3Y6)
STK32B (human) = STK32B (human) (UniProt Q9NY57)
STK24 (human) = STK24 (human) (UniProt Q9Y6E0)
RPS6KA5 KD1 (human) = RPS6KA5 KD1 (human) (UniProt O75582)
Chain of RPS6KA5 KD1 (human) (O75582 whole entry, looked up): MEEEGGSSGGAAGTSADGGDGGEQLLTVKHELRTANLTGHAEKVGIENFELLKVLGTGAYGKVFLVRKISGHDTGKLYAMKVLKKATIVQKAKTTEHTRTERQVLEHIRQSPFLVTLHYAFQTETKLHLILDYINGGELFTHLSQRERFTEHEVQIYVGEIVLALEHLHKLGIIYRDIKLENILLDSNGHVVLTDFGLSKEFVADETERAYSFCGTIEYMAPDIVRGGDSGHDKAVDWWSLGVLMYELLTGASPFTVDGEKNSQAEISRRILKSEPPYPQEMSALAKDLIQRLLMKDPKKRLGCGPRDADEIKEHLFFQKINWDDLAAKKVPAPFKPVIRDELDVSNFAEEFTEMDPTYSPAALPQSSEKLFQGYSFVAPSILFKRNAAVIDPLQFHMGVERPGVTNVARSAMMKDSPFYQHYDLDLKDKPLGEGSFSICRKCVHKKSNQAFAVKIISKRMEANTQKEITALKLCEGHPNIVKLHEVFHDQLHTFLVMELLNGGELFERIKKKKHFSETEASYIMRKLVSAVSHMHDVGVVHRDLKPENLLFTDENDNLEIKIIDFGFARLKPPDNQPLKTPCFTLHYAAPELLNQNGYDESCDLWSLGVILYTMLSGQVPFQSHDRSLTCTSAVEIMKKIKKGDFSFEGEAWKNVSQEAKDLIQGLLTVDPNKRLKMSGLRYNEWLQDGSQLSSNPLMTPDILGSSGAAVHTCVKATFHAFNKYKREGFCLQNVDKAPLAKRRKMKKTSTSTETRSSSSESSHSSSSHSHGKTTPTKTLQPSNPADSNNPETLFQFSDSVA

GSK3A (human) = GSK3A (human) (UniProt P49840)
ALK (human) = ALK (human) (UniProt Q9UM73)
MAP3K11 (human) = MAP3K11 (human) (UniProt Q16584)
ACVR1B (human) = ACVR1B (human) (UniProt P36896)
Chain of ACVR1B (human) (P36896 whole entry, looked up): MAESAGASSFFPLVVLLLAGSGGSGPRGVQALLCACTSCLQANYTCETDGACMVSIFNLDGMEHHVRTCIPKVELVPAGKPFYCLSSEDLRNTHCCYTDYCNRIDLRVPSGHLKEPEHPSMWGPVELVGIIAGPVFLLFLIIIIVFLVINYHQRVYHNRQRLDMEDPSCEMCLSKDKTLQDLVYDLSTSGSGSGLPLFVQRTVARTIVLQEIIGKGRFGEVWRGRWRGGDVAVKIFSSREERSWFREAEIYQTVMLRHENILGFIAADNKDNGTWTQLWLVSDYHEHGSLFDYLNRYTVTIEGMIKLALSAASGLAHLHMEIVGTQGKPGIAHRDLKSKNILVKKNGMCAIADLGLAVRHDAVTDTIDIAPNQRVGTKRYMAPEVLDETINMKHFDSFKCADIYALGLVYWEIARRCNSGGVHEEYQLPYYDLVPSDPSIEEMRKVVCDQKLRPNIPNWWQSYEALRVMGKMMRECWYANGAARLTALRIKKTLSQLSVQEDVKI

MAK (human) = MAK (human) (UniProt P20794)
CDK4 CCND1 (human) = CDK4 CCND1 (human) (UniProt P11802+P24385)
[1] = target: TYK2 JH2 pseudokinase (human) (UniProt P29597)
PIK3CG (human) = PIK3CG (human) (UniProt P48736)
EPHB2 (human) = EPHB2 (human) (UniProt P29323)
Chain of EPHB2 (human) (P29323 whole entry, looked up): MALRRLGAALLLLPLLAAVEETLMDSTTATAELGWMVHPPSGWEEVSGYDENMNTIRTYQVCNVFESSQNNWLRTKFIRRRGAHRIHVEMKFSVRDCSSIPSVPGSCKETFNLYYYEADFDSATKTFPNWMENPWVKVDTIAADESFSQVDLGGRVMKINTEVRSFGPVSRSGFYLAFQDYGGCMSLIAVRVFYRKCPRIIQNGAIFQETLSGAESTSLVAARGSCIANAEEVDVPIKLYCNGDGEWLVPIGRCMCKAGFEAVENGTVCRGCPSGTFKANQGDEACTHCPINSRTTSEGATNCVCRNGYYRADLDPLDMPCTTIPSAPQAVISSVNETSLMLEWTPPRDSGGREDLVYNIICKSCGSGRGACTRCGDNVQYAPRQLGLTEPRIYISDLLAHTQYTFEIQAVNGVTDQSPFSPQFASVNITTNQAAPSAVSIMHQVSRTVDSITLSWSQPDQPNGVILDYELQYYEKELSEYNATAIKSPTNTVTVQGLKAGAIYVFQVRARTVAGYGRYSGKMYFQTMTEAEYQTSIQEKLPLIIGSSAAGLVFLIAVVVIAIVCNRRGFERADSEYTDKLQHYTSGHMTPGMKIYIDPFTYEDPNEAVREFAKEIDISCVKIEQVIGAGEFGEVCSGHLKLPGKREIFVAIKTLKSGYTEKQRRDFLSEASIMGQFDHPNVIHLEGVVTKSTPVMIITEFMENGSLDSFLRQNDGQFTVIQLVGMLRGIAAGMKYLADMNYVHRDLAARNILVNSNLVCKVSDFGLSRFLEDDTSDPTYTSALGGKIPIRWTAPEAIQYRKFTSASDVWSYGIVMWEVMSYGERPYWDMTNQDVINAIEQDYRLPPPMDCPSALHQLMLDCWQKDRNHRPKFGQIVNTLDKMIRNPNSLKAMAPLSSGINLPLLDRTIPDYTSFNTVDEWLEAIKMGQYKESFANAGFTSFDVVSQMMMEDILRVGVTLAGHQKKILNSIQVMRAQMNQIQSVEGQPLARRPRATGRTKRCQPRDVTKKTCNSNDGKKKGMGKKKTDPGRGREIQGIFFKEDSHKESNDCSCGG

[2] = tested on: KIT (human), P10721 [A829P]
Chain of KIT (human), P10721 [A829P] (P10721 whole entry A829P, looked up): as the sequence (P10721 whole entry, looked up) above, with A829P counted along it

TAOK1 (human) = TAOK1 (human) (UniProt Q7L7X3)
PRKD2 (human) = PRKD2 (human) (UniProt Q9BZL6)
IGF1R (human) = IGF1R (human) (UniProt P08069)
STK38L (human) = STK38L (human) (UniProt Q9Y2H1)
PIP4K2B (human) = PIP4K2B (human) (UniProt P78356)
NEK5 (human) = NEK5 (human) (UniProt Q6P3R8)
CSNK1A1 (human) = CSNK1A1 (human) (UniProt P48729)
RPS6KA4 KD2 (human) = RPS6KA4 KD2 (human) (UniProt O75676)
MYO3A (human) = MYO3A (human) (UniProt Q8NEV4)
Chain of MYO3A (human) (Q8NEV4 whole entry, looked up): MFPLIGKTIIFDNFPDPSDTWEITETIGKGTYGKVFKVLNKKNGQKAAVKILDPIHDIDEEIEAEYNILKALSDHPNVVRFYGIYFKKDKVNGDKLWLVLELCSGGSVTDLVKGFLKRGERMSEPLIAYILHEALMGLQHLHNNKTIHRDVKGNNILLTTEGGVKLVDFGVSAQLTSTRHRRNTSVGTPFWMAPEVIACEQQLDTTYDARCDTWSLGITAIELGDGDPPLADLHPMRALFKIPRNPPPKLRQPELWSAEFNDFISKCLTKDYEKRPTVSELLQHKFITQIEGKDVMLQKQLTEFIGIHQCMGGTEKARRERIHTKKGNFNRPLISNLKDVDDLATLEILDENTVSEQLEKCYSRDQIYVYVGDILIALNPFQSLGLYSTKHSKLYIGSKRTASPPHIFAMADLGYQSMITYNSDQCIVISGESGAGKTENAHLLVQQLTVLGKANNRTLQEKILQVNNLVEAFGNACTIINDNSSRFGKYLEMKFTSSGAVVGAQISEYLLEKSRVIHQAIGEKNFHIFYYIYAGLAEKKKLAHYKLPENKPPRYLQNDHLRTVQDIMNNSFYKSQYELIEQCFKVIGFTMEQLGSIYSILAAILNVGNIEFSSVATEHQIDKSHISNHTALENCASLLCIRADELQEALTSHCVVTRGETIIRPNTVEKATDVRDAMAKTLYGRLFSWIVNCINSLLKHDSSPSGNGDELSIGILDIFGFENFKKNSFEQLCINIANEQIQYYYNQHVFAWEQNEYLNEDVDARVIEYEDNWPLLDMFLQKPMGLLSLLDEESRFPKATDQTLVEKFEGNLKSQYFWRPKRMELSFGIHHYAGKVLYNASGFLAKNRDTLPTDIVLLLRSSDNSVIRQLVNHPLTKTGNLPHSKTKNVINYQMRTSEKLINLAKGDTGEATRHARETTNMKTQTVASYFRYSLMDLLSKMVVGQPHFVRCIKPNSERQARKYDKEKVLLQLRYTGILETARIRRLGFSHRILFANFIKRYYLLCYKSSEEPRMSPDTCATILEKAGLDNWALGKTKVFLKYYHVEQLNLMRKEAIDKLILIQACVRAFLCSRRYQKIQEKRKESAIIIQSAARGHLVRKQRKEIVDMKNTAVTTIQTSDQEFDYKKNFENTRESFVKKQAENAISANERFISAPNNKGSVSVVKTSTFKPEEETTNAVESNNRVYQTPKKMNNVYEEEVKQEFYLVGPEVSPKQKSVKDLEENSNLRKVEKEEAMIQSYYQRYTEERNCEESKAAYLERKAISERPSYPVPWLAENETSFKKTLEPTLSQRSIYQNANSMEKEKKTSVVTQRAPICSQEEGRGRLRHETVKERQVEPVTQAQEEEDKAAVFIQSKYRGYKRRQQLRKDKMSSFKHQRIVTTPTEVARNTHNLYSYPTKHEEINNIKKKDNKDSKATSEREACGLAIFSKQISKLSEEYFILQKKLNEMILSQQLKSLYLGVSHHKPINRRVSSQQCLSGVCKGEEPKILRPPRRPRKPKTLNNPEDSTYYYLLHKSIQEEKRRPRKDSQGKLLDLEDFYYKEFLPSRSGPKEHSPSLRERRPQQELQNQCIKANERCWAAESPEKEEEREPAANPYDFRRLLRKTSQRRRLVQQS

SMILES | kinase still bound, per cent of control (ERBB4 (human)) [%] | kinase still bound, per cent of control (PDGFRB (human)) [%] | kinase still bound, per cent of control (MAP3K2 (human)) [%] | kinase still bound, per cent of control (DAPK2 (human)) [%] | kinase still bound, per cent of control (CDK15 (human)) [%] | kinase still bound, per cent of control (IKBKE (human)) [%] | kinase still bound, per cent of control (SIK1 (human)) [%] | kinase still bound, per cent of control (DYRK1A (human)) [%] | kinase still bound, per cent of control (MAP3K6 (human)) [%] | kinase still bound, per cent of control (KIT (human)) [%] | kinase still bound, per cent of control (IKBKB (human)) [%] | kinase still bound, per cent of control (SRMS (human)) [%] | kinase still bound, per cent of control (STK32B (human)) [%] | kinase still bound, per cent of control (STK24 (human)) [%] | kinase still bound, per cent of control (RPS6KA5 KD1 (human)) [%] | kinase still bound, per cent of control (GSK3A (human)) [%] | kinase still bound, per cent of control (ALK (human)) [%] | kinase still bound, per cent of control (MAP3K11 (human)) [%] | kinase still bound, per cent of control (ACVR1B (human)) [%] | kinase still bound, per cent of control (MAK (human)) [%] | also measured
CC1=C(C(=O)Nc2cc3cn[nH]c3cc2F)C(c2ccc(C(F)(F)F)cc2)CC(=O)N1 (stereo not drawn) | 41 | 70 | 79 | 92 | 84 | 77 | 77 | 100 | 80 | 90 | 86 | 58 | 52 | 52 | 88 | 100 | 77 | 100 | 94 | 100 | kinase still bound, per cent of control (CDK4 CCND1 (human)): 71%; kinase still bound, per cent of control [1]: 100%; kinase still bound, per cent of control (PIK3CG (human)): 88%; kinase still bound, per cent of control (EPHB2 (human)): 100%; kinase still bound, per cent of control [2]: 58%; kinase still bound, per cent of control (TAOK1 (human)): 53%; kinase still bound, per cent of control (PRKD2 (human)): 76%; kinase still bound, per cent of control (IGF1R (human)): 98%; kinase still bound, per cent of control (STK38L (human)): 12%; kinase still bound, per cent of control (PIP4K2B (human)): 100%; kinase still bound, per cent of control (NEK5 (human)): 90%; kinase still bound, per cent of control (CSNK1A1 (human)): 86%; kinase still bound, per cent of control (RPS6KA4 KD2 (human)): 100%; kinase still bound, per cent of control (MYO3A (human)): 85%
N#Cc1cc(-c2ccnc(Nc3ccc(-n4cnc(-c5cccnc5)n4)cc3)n2)cc(N2CCOCC2)c1 | 91 | 8.2 | 31 | 96 | 55 | 37 | 73 | 3.1 | 88 | 0.65 | 38 | 62 | 100 | 70 | 100 | 3.5 | 100 | 46 | 76 | 49 | kinase still bound, per cent of control (CDK4 CCND1 (human)): 100%; kinase still bound, per cent of control [1]: 12%; kinase still bound, per cent of control (PIK3CG (human)): 0.75%; kinase still bound, per cent of control (EPHB2 (human)): 89%; kinase still bound, per cent of control [2]: 51%; kinase still bound, per cent of control (TAOK1 (human)): 20%; kinase still bound, per cent of control (PRKD2 (human)): 93%; kinase still bound, per cent of control (IGF1R (human)): 51%; kinase still bound, per cent of control (STK38L (human)): 100%; kinase still bound, per cent of control (PIP4K2B (human)): 6.9%; kinase still bound, per cent of control (NEK5 (human)): 1.4%; kinase still bound, per cent of control (CSNK1A1 (human)): 60%; kinase still bound, per cent of control (RPS6KA4 KD2 (human)): 100%; kinase still bound, per cent of control (MYO3A (human)): 69%

— the kinase profiling compilation of Christmann-Franck et al. (2016)
